Ends that are not written are not given here.
How the values were obtained:
C. neoformans = experiment: Fungicidal/fungistatic tests; format: cell-based, Cryptococcus neoformans; parameters: key: Presence (+); absence (–); conditions: 5 µL plated on YPD agar, 30°C, visual inspection, six replicates
Method: Fungicidal/fungistatic tests were conducted with the four especially effective syn-enterocin peptides. C. neoformans was grown at 30°C in YPD overnight to an OD between 0.5 and 1.2 at 600 nm, then the C. neoformans culture was diluted to 10^5 and 10^3 fungal cells per well on a 96-well plate. Each well was treated with peptide at 16 µM before 5 µL per well was transferred onto YPD agar plates. Dilutions to reach desired cell counts were done in YPD. Six replicates of each peptide/dilution combination were plated. Plates were incubated at 30°C for 72 hours. Fungal growth was determined by visual inspection, with presence or absence of fungal growth being recorded (individual colonies were absent or overgrown and thus uncountable).

C. neoformans (KN99α) = conditions: 96 h
Method: C. neoformans and C. auris plates were incubated at 37°C and 5% CO2 for 96 hours after introduction of peptide and read at OD 600nm every 24 hours. […] MICs were determined for suspected positive hits against C. neoformans and C. albicans grown under the conditions previously described with approximately 500 fungal cells per well. […] C. neoformans plates were incubated at 37°C and 5% CO2 for 96 hours after introduction of peptide and read at OD 600nm every 24 hours. […] MICs were determined by approximately 50% inhibition of fungal growth, meaning that fungal growth as measured by OD was reduced 50% by peptide treatment relative to vehicle control.
Percent inhibition was calculated as the reduction
in OD at 600nm following peptide treatment relative to vehicle control. The average of six
replicates was used for each peptide concentration treatment and vehicle control.

## OC(Cn1cncn1)(Cn1cncn1)c1ccc(F)cc1F [Fluconazole]
C. neoformans; cell count 10^3, treatment 16 μM
  Presence or absence of fungal growth at 72 hrs: –
C. neoformans; cell count 10^5, treatment 16 μM
  Presence or absence of fungal growth at 72 hrs: –

## AGWERIAKELKKYIKKGKKVIRAAW [Peptide 32]
C. neoformans (KN99α)
  MIC against C. neoformans: 2 µM
